Patent US20120270237A9, “METHODS FOR THE IDENTIFICATION OF KINASE INTERACTING MOLECULES AND FOR THE PURIFICATION OF KINASE PROTEINS” (Cellzone AG, priority 2009, published 2012)

How the values were obtained:
Test in all cases: Kinobeads competition binding, HL60 cell lysate
Design in all cases: endogenous in cells
Conditions in all cases: 10 μM free compound
TBK1 = biological target: T1, TBK1 (Homo sapiens, UniProt Q9UHD2)
T1 sequence (Q9UHD2 1-729): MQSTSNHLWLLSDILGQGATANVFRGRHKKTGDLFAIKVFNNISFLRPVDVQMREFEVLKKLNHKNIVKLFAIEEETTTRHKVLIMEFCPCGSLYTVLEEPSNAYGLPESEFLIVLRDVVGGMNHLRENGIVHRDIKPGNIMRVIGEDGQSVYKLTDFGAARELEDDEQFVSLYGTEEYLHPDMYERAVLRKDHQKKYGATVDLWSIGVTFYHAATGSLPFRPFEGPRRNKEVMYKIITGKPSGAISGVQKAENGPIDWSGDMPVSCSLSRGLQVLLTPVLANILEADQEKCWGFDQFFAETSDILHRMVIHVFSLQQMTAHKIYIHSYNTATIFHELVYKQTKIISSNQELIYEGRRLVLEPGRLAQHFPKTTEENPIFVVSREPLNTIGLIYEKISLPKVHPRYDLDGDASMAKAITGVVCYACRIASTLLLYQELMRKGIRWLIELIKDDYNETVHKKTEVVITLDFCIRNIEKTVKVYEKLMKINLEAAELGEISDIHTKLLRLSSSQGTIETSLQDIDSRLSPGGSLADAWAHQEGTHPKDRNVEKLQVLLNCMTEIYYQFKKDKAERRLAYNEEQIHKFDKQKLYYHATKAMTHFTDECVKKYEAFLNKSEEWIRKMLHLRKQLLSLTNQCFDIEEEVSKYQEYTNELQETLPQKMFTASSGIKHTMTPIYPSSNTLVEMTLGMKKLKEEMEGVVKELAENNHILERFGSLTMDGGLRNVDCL
Outline: (§1)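 Two aliquots of HL60 cell lysate were used, one spiked with 10 μM compound and one with 0.5% DMSO, before pull-down on immobilized-compound beads (50 mg protein, 2 h, 4 °C). Bound proteins were digested and labeled with different iTRAQ reagents. Combined peptides were analysed by LC-MS/MS.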

JAK1 = JAK1 (Homo sapiens, UniProt P23458)
Outline: as §1

Erk2 = Erk2 (Homo sapiens, UniProt P28482)
Outline: as §1

RSK2 = RSK2 (Homo sapiens, UniProt P51812)
Outline: as §1

IKKe = biological target: T2, IKKe (Homo sapiens, UniProt Q14164)
T2 sequence (Q14164 1-716): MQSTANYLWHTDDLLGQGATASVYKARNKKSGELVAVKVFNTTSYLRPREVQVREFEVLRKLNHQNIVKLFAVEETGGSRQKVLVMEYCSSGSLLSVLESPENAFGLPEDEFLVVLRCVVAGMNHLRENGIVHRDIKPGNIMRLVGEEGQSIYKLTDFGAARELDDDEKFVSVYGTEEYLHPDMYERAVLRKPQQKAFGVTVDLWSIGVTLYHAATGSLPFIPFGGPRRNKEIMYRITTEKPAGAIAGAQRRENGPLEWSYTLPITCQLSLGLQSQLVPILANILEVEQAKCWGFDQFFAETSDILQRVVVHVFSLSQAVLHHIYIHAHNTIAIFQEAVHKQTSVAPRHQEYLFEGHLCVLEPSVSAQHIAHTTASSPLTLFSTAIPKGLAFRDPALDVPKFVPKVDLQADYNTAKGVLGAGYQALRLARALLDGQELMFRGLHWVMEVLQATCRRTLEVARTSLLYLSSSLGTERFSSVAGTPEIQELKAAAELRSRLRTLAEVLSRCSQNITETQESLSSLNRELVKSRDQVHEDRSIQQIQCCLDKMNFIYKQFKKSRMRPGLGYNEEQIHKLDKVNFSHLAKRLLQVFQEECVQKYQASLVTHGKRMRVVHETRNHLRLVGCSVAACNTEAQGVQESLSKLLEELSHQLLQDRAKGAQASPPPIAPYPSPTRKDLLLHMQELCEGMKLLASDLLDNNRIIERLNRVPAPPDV
Outline: as §1

Sequence of Erk2 (P28482 whole entry): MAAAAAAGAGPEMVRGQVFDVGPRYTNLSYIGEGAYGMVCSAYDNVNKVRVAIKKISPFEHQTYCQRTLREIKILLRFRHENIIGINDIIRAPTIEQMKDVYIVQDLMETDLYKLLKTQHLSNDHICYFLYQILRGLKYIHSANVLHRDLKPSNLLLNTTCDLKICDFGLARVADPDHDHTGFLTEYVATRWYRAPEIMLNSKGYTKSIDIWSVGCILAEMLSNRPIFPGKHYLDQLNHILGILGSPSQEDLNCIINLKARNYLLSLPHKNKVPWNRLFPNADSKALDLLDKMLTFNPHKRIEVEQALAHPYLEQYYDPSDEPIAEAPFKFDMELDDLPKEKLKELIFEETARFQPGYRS
Sequence of RSK2 (P51812 whole entry): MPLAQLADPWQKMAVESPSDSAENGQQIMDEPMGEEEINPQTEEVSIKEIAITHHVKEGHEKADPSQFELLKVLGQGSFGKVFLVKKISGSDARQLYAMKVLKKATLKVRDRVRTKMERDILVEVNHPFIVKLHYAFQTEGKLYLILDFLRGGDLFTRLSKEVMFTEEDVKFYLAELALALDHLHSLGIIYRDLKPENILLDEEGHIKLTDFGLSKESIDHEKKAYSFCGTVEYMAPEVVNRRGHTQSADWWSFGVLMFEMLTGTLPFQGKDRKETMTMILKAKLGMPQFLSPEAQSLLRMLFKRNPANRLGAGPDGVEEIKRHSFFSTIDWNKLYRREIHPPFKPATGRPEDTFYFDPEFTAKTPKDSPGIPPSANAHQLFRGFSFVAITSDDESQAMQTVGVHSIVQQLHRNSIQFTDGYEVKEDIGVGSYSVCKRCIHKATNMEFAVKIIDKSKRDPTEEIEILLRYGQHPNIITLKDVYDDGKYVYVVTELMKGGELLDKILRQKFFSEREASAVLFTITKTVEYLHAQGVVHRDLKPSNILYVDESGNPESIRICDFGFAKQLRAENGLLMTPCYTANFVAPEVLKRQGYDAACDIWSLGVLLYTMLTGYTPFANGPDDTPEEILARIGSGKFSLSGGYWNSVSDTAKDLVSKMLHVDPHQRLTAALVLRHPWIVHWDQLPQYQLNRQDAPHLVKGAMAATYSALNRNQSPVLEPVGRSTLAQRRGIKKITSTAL
Sequence of JAK1 (P23458 whole entry): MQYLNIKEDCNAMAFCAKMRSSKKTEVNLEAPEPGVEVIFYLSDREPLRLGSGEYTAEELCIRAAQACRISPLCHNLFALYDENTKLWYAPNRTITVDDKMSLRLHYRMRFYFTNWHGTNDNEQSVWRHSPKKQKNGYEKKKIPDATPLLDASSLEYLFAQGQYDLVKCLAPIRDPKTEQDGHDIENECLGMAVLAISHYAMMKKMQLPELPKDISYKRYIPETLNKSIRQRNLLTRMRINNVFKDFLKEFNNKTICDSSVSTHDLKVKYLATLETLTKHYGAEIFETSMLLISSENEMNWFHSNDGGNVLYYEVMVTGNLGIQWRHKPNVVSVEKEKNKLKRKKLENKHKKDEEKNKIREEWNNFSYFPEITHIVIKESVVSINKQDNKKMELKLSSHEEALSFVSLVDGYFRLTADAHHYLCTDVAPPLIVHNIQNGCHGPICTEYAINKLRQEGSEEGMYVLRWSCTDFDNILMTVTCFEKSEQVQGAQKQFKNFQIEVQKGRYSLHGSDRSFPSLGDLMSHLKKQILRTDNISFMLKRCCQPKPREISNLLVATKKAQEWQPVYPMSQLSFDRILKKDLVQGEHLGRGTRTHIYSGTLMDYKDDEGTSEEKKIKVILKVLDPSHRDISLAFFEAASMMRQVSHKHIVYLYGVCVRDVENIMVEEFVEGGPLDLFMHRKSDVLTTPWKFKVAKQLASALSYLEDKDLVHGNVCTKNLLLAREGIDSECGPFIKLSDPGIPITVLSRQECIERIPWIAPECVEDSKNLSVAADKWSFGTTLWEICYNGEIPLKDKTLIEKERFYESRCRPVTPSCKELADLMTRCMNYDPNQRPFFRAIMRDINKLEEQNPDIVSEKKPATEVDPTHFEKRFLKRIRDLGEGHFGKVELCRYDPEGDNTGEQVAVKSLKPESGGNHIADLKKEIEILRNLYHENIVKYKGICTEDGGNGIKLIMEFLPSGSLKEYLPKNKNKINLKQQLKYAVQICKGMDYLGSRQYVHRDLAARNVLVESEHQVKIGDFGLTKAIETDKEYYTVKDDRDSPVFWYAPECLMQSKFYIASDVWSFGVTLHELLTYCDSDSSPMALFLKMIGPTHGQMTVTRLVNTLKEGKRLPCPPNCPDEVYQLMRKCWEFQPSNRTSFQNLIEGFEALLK

CS(=O)(=O)Nc1ccccc1Nc1nc(Nc2cccc(OCCN)c2)ncc1Cl [CZC31326, N-(2-(2-(3-(2-aminoethoxy)phenylamino)-5-chloropyrimidin-4-ylamino)phenyl)methanesulfonamide]
inhibition at 10 µM (TBK1): 94.8%
Competition % (JAK1): 97.8%
inhibition at 10 µM (Erk2): 75.8%
inhibition at 10 µM (RSK2): 96.7%
inhibition at 10 µM (IKKe): 91.4%
